Test results from US8765688B2, “Anti-dandruff compositions containing peptides” (priority 2007, dated 2014).
Numbered stars: 1 amine (or outer) side, 2 acyl side, 3 side chain; on linkers, the order of the positions; unused ones are H or OH. Bridge positions count the residues as written; N and C are the ends. Square brackets hold non-standard residues; d marks the D form. Ends that are not written are not given here. Peptide text beside a SMILES is read from it. * marks the point of attachment. Orn(4R-OH,5R-OH) = O=C([C@H](C[C@@H](O)[C@@H](O)N[*:3])N[*:1])[*:2]; hTyr(3S-OH,4S-OH) = N[C@H](C(=O)O)[C@H](O)[C@@H](O)c1ccc(O)cc1; Pro(3S-OH,4S-Me) = C[C@H]1CN[C@H](C(=O)O)[C@H]1O; Benzoyl(4-octyloxy) = CCCCCCCCOc1ccc(C(=O)*)cc1; Hyp = O=C(O)[C@@H]1C[C@@H](O)CN1

Tests used:
Malassezia furfur [1] = conditions: cited from earlier work; for growth inhibition of M. furfur (in words): 25 μM, Lopez-Garcia et al., 2006
Candida albicans = conditions: cited from earlier work
Malassezia furfur [2] = assay: Inhibition of Malassezia furfur growth test (optical density and colony-forming units), Examples 1 and 2; assay type: cell-based; conditions: solution in DMSO, 25 μM; for colony-forming units: 10 μl plated out
Experimental: Growth medium: M472-Pitysporum medium according to DSMZ
(§1) The components were sterilized at 121° C., 1 bar superatmospheric pressure for 20 minutes.
2 g/l of olive oil were sterilized by filtration and, after autoclaving, added to the other components.
(§2) Since it was a two-phase medium, the complete medium was treated with sonication in order to enlarge the phase boundary.
For agar plates, if appropriate, […] of agar agar were added to the medium.
The growth test was carried out as follows: A shake flask with M472-Pitysporum medium was inoculated with M. furfur and incubated with shaking overnight at 30° C. and 200 rpm.
A 96-well microtiter plate was filled with in each case 100 μl of M472-Pitysporum medium and inoculated with M. furfur suspension of the overnight culture. The M. furfur suspension was adjusted at the start of the experiment to an optical density, measured at 620 nm, of 0.02. The concentrates of the inhibitor solutions were 1 mM in water or DMSO.
(§3) The growth of the following batches was compared by measuring the optical density:
M. furfur suspension without the addition of an inhibitor.
This was to exclude that an inhibition is attributable merely to the effect of the DMSO, or a false positive result being observed.
M. furfur suspension and addition of an aqueous P18 solution with a final concentration of 25 μM.
M. furfur suspension and addition of a P18 solution in DMSO with a final concentration of 25 μM.
M. furfur suspension and addition of a zinc pyrithione (ZPT, Sigma-Aldrich) solution in DMSO with a final concentration of 25 μM.
M. furfur suspension and addition of a Ketoconazole (Sigma-Aldrich) solution in DMSO with a final concentration of 25 μM.
(§4) The microtiter plate was incubated with shaking at 30° C.
[…] The colony-forming units (CFU) were then determined by plating out 10 μl from each of the suspensions and, after incubation for 6 days, counting the colonies. The CFU was determined in order to exclude an influence of the two-phase medium and also the growth form of M. furfur on the optical density. […] The experiments were carried out at least in triple determinations and independently repeated.
For this, the procedure was as described in Example 1. 1 mM stock solutions of the fusion peptide P18, magainin 2 and cecropin A in DMSO were prepared. The final concentrations of the peptides in the growth experiments were 25 μM. The same amount of DMSO was likewise added to the suspension without inhibitor in order to exclude a growth-inhibiting effect of the DMSO.
The growth of the following mixtures was compared by measuring the optical density:
This was to exclude that an inhibition is attributable merely to the effect of the DMSO.
M. furfur suspension and addition of a magainin 2 solution in DMSO with a final concentration of 25 μM.
M. furfur suspension and addition of a cecropin A solution in DMSO with a final concentration of 25 μM.
M. furfur suspension and addition of a peptide P18 (SEQ ID NO3) solution in DMSO with a final concentration of 25 μM.

Malassezia furfur [3] = assay: Incubation times with P18 from 5 minutes to 1 hour, CFU of M. furfur, compared to Zincpyrithione; assay type: cell-based
Experimental: Since growth inhibition of M. furfur by the peptide P18 (P18 peptide sequence H-KWKLFKKIPKFLHLAKKF-NH2; SEQ ID NO: 3) had so far only been analyzed over incubation times of more than one hour, now the effect of the peptide P18 within the first minutes of incubation (5 minutes, 10 minutes and 20 minutes) up to the first hour after adding to the M. furfur overnight culture was tested and compared to the reference substance Zincpyrithione (Sigma Aldrich). For this, the peptide P18 and the reference substance Zincpyrithione were used in concentrations of 100 μM, 200 μM and 500 μM. The experiments were carried out as follows:
(§5) Growth medium: M472-Pityrosporum medium according to DSMZ
as §1
(§6) 2 g/L of olive oil (sterilized by filtration and, after autoclaving, added to the other components)
as §2
(§7) For agar plates, if appropriate, 150 g/L of agar agar were added to the medium.
(§8) The growth test was carried out as follows: A shake flask with M472-Pityrosporum medium was inoculated with M. furfur and incubated with shaking overnight at 30° C. and 200 rpm.
A 96-well microtiter plate was filled with in each case 100 μl of M472-Pityrosporum medium and inoculated with M. furfur suspension of the overnight culture. The M. furfur suspension was adjusted at the start of the experiment to an optical density, measured at 600 nm, of 0.1.
The growth of the following batches was compared:
M. furfur suspension and addition of the peptide P18 with a final concentration of 100 μM, plating out after 5 minutes, 10 minutes, 20 minutes and 60 minutes
M. furfur suspension and addition of the peptide P18 with a final concentration of 200 μM plating out after 5 minutes, 10 minutes, 20 minutes and 60 minutes
M. furfur suspension and addition of the peptide P18 with a final concentration of 500 μM plating out after 5 minutes, 10 minutes, 20 minutes and 60 minutes
M. furfur suspension and addition of Zincpyrithione with a final concentration of 100 μM plating out after 5 minutes, 10 minutes, 20 minutes and 60 minutes
M. furfur suspension and addition of Zincpyrithione with a final concentration of 200 μM plating out after 5 minutes, 10 minutes, 20 minutes and 60 minutes
M. furfur suspension and addition of Zincpyrithione with a final concentration of 500 μM plating out after 5 minutes, 10 minutes, 20 minutes and 60 minutes
as §4
After the incubation times indicated above, the colony-forming units (CFU) were determined by plating out 50 μl from each of the suspensions and, after incubation for 6 days, counting the colonies. The CFU was determined in order to exclude an influence of the two-phase medium and also the growth form of M. furfur on the optical density. The experiments were independently repeated.

Malassezia furfur [4] = assay: Growth inhibition of Malassezia furfur with equal concentrations (% by weight) of P18, Zincpyrithione, Climbazole and Ketoconazole, CFU; assay type: cell-based; conditions: 362 μM final conc., mean ± SD
Experimental: as §5, §1, §6, §2, §7, §8
A 96-well microtiter plate was filled with in each case 100 μl of M472-Pityrosporum medium and inoculated with M. furfur suspension of the overnight culture. The M. furfur suspension was adjusted at the start of the experiment to an optical density, measured at 600 nm, of 0.02. The concentrates of the inhibitor solutions were 1 mM in DMSO for the peptide P18 and 10 mM in DMSO for Zincpyrithione, Ketoconazole and Climbazole. The DMSO final concentrations were maintained the same in all experiments. This means that a corresponding volume of DMSO was added to the mixture in the case of a higher concentration of Zincpyrithione, Ketoconazole or Climbazole concentrate in order to ensure comparability to the mixtures containing P18.
as §3
M. furfur suspension and addition of P18 solution with a final concentration of 50 μM (equal to 0.0115% (w/w))
M furfur suspension and addition of Zincpyrithione (ZPT) solution with a final concentration of 362 μM (comparison to the mixture containing 50 μM of the peptide P18)
M furfur suspension and addition of Ketoconazole solution with a final concentration of 216 μM (comparison to the mixture containing 50 μM of the peptide P18)
M furfur suspension and addition of Climbazole solution with a final concentration of 390 μM (comparison to the mixture containing 50 μM of the peptide P18)
as §4
After 24 hours of incubation, the colony-forming units (CFU) were determined by plating out 10 μl of medium from each of the suspensions on agar plates. After incubation for 6 days, the colonies on the plates were counted. The CFU was determined in order to exclude an influence of the two-phase medium and also the growth form of M. furfur on the optical density. The experiments were carried out in at least two independent experiments, each with double determination.

## Cecropin P1 (SWLSKTAKKLENSAKKRISEGIAIAIQGGPR; Cecropin-P1; UniProt P14661 14-44, looked up)
Malassezia furfur [1]
  growth inhibition of M. furfur (in words): moderate antifungal effect

## basic phytosphingosines
Malassezia furfur [1]; Nenoff et al., 2002
  concentration inhibiting M. furfur: 6250 µg/mL

## CCCCCCCCOc1ccc(C(=O)N[C@H]2C[C@@H](O)[C@@H](O)NC(=O)[C@@H]3[C@@H](O)[C@@H](C)CN3C(=O)[C@H]([C@@H](C)O)NC(=O)[C@H]([C@H](O)[C@@H](O)c3ccc(O)cc3)NC(=O)[C@@H]3C[C@@H](O)CN3C(=O)[C@H]([C@@H](C)O)NC2=O)cc1 [cilofungin] ({Benzoyl(4-octyloxy)}-[Orn(4R-OH,5R-OH)]T[Hyp][hTyr(3S-OH,4S-OH)]T[Pro(3S-OH,4S-Me)]; lactam 1-C)
Candida albicans; cilofungin concentration of 0.62 μg/ml, Hanson et al. 1989
  C. albicans strains that did not grow: 76%
Malassezia furfur [1]; 0.62 μg/ml, Hanson et al. 1989
  inhibition of M. furfur (in words): not inhibited

## magainin 2 [reference compound]
Malassezia furfur [1]
  growth inhibition of M. furfur (in words): comparably better effect
Malassezia furfur [2]; incubation time 64 h
  CFU: >10 000
Malassezia furfur [2]; incubation time 72 h
  CFU: >10 000

## phytosphingosine salts
Malassezia furfur [1]; Nenoff et al., 2002
  sensitivity of M. furfur (in words): appeared to be resistant

## zinc pyrithione [ZPT, reference compound]
Malassezia furfur [3]; final concentration 100 μM, 5 minutes
  colony-forming units after the indicated incubation time: >1000
Malassezia furfur [3]; final concentration 100 μM, 10 minutes
  colony-forming units after the indicated incubation time: >1000
Malassezia furfur [3]; final concentration 100 μM, 20 minutes
  colony-forming units after the indicated incubation time: >1000
Malassezia furfur [3]; final concentration 100 μM, 60 minutes
  colony-forming units after the indicated incubation time: >1000
Malassezia furfur [3]; final concentration 200 μM, 5 minutes
  colony-forming units after the indicated incubation time: >1000
Malassezia furfur [3]; final concentration 200 μM, 10 minutes
  colony-forming units after the indicated incubation time: >1000
Malassezia furfur [3]; final concentration 200 μM, 20 minutes
  colony-forming units after the indicated incubation time: >1000
Malassezia furfur [3]; final concentration 200 μM, 60 minutes
  colony-forming units after the indicated incubation time: >1000
Malassezia furfur [3]; final concentration 500 μM, 5 minutes
  colony-forming units after the indicated incubation time: >1000
Malassezia furfur [3]; final concentration 500 μM, 10 minutes
  colony-forming units after the indicated incubation time: >1000
Malassezia furfur [3]; final concentration 500 μM, 20 minutes
  colony-forming units after the indicated incubation time: >1000
Malassezia furfur [3]; final concentration 500 μM, 60 minutes
  colony-forming units after the indicated incubation time: >1000
Malassezia furfur [4]; incubation time 24 h
  colony-forming units: 60 ± 40
Malassezia furfur [4]; incubation time 40 h
  colony-forming units: 26 ± 7
Malassezia furfur [2]; incubation time 0 h
  optical density: 0
Malassezia furfur [2]; incubation time 16 h
  optical density: 0
  colony-forming units: 42
Malassezia furfur [2]; incubation time 24 h
  optical density: 0
  colony-forming units: 22
Malassezia furfur [2]; incubation time 40 h
  optical density: 0
  colony-forming units: 28

## phytosphingosines
Candida albicans; Nenoff et al., 2002
  concentrations inhibiting Candida albicans: 152 to 269 µg/mL

## CC(=O)N1CCN(c2ccc(OCC3COC(Cn4ccnc4)(c4ccc(Cl)cc4Cl)O3)cc2)CC1 (stereo not drawn) [Ketoconazole, reference compound]
Malassezia furfur [2]; incubation time 0 h
  optical density: 0
Malassezia furfur [2]; incubation time 16 h
  optical density: 0
  colony-forming units: 80
Malassezia furfur [2]; incubation time 24 h
  optical density: 0.004
  colony-forming units: 22
Malassezia furfur [2]; incubation time 40 h
  optical density: 0.013
  colony-forming units: 90

## cecropin A (KWKLFKKIEKVGQNIRDGIIKAGPAVAVVGQATQIAK; ends and bridges not checked; UniProt P01507 27-63, looked up) [peptide of 37 amino acids from Hyalophora cecropia, reference compound]
Malassezia furfur [2]; incubation time 64 h
  CFU: >5000
Malassezia furfur [2]; incubation time 72 h
  CFU: >5000
